Holding throughout (type): biochemical
For assay [1], the target named is T1, Laforin (Homo sapiens, UniProt O95278).
T1 construct: made in house; host or cells: E. coli
T1 sequence (O95278 1-331): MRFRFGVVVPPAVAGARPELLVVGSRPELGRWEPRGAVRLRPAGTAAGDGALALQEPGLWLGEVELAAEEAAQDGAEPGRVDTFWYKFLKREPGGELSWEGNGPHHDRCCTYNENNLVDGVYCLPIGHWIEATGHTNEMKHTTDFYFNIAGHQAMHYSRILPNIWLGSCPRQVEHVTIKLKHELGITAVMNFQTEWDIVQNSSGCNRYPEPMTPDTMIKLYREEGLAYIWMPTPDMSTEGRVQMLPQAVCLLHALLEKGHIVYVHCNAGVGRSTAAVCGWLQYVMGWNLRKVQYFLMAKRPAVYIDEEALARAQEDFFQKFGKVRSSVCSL
Description: Tyrosine phosphatase selectivity (pNPP substrate), Laforin. Particulars: for IC50: Laforin, pNPP substrate; for IC50PTP/IC50SHP2 Laforin: selectivity ratio Laforin over SHP2. On the procedure: (§1) This experiment evaluated the selectivity of the disclosed compounds against tyrosine phosphatases, including SHP1, HePTP, Laforin, LMWPTP, LYP, PTP1B, PRL2, SSU72, VHR, FAP1, STEP, CDC14A, CD45, MEG2, and PP5, all expressed and purified from E. coli.
(§2) Phosphatase activity was measured using p-nitrophenyl phosphate (pNPP) (Fisher Scientific) as the substrate in 50 mM 3,3-dimethylglutaric acid buffer (pH 7.0, containing 1 mM EDTA), with ionic strength adjusted to 0.15 M with NaCl. […] After 10-60 minutes, the reaction was quenched by adding 20 µL of 5 N NaOH. Wells without enzyme were used as controls for correction. The amount of the product, p-nitrophenol, was determined by measuring the absorbance at 405 nm using a Spectra MAX340 microplate spectrophotometer (Molecular Devices), with a molar extinction coefficient of 18000 M^-1cm^-1.
(§3) Data were analyzed using GraphPad Prism software. Dose-response curves were obtained by fitting data using the nonlinear S-curve regression Dose-response-inhibition equation, and IC50 values were calculated.

The target in assay [2] is T2, PRL2 (Homo sapiens, UniProt Q12974).
T2 construct: made in house; host or cells: E. coli
T2 sequence (Q12974 1-167): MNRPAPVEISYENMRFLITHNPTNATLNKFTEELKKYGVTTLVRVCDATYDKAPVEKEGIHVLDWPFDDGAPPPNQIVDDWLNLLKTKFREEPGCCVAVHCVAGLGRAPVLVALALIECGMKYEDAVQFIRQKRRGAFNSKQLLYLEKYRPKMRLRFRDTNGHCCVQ
Description: Tyrosine phosphatase selectivity (pNPP substrate), PRL2. Particulars: for IC50: PRL2, pNPP substrate; for IC50PTP/IC50SHP2 PRL2: selectivity ratio PRL2 over SHP2. On the procedure: as §1, §2, §3

For assay [3], the target named is T3, CD45 (Homo sapiens, UniProt P08575).
T3 construct: made in house; host or cells: E. coli
T3 sequence (P08575 26-1306): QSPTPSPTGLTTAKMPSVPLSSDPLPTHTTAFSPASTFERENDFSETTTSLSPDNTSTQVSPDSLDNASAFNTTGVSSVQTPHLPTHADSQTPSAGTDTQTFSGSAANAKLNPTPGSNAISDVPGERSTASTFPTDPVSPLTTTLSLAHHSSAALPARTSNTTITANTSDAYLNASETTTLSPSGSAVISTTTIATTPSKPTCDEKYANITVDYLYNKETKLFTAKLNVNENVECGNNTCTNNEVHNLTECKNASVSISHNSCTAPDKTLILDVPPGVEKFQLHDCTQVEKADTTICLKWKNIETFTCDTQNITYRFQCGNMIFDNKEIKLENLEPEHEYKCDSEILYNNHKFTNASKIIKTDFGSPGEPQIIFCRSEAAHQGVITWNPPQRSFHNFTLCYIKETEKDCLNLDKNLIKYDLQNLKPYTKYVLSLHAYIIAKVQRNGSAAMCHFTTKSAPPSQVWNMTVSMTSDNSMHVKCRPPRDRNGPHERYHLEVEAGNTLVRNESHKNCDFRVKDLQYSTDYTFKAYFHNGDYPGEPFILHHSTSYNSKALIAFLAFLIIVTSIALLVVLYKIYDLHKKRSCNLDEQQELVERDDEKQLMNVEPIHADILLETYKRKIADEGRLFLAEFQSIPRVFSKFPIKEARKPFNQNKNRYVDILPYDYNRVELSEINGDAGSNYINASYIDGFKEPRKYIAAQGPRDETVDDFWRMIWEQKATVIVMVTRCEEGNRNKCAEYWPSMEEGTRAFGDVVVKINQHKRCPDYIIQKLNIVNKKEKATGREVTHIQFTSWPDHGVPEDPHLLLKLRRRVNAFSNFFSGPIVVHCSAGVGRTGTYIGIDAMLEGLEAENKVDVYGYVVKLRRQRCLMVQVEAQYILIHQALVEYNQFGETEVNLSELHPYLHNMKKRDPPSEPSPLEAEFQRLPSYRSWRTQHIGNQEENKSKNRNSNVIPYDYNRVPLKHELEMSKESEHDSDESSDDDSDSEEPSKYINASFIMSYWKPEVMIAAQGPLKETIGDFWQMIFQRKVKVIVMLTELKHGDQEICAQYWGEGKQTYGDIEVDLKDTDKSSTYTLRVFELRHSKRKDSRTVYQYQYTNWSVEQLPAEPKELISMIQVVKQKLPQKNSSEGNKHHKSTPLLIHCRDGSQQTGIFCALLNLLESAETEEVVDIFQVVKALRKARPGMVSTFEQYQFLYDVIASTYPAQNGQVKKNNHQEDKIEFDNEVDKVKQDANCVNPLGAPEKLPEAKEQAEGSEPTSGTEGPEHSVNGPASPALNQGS
Briefly: Tyrosine phosphatase selectivity (pNPP substrate), CD45. Particulars: for IC50: CD45, pNPP substrate; for IC50PTP/IC50SHP2 CD45: selectivity ratio CD45 over SHP2. The protocol:
as §1, §2, §3

One may read the IC50 as the point on the concentration scale where inhibition reaches its midpoint. A lower IC50 goes with inhibition by little substance. In the case of `O=C(Nc1ccc(-c2oc3cc(F)c(-c4nnn[nH]4)cc3c2C2CCC2)cc1)C(=O)Nc1ccc(N2CCC3(CCOC3)CC2)cc1` [Example 125], in assay [1], the concentration for half-maximal inhibition (IC50) is over 100 µM and the “IC50PTP/IC50SHP2 Laforin” value is listed as 1960.8. Further, in assay [2], the IC50 was over 100 µM and the “IC50PTP/IC50SHP2 PRL2” value was 1960.8. Further, in assay [3], the IC50 stood at 16.1 µM and the “IC50PTP/IC50SHP2 CD45” value is given as 315.7.

In the case of `Cn1c(-c2cccc(NC(=O)C(=O)Nc3ccc(-c4ccsc4)cc3)c2)c(I)c2cc(C(=O)O)c(O)cc21` [Example 11a-1, reference compound], in assay [1], half-maximal inhibition (IC50) was put at 12.2 µM and the “IC50PTP/IC50SHP2 Laforin” value is recorded as 112.

On to `O=C(Nc1ccc(-c2cc3cc(F)c(-c4nnn[nH]4)cc3n2C2CCC2)cc1)C(=O)Nc1ccc(N2CCOCC2)cc1` [Example 47], for which, in assay [1], the IC50 was 0.61 µM and the “IC50PTP/IC50SHP2 Laforin” value worked out at 9.6. For the same molecule, in assay [2], the IC50 is over 100 µM and the “IC50PTP/IC50SHP2 PRL2” value came to 1587. In addition, in assay [3], the IC50 is 1.06 µM and the “IC50PTP/IC50SHP2 CD45” value came out at 16.8.

For the molecule `O=C(Nc1ccc(-c2ccsc2)cc1)C(=O)Nc1ccc(-c2cc3cc(F)c(-c4nnn[nH]4)nc3n2C2CCC2)cc1` [Example 132], in assay [1], the IC50 is over 20 µM and the “IC50PTP/IC50SHP2 Laforin” value is 740.7. In assay [2], the IC50 was over 50 µM and the “IC50PTP/IC50SHP2 PRL2” value worked out at 1851.9. Moreover, in assay [3], the half-maximal inhibitory concentration (IC50) is 23.7 µM and the “IC50PTP/IC50SHP2 CD45” value came out at 877.8.

Turning to `Cn1cc(-c2ccc(NC(=O)C(=O)Nc3ccc(-c4cc5cc(F)c(-c6nnc(C(F)(F)F)[nH]6)cc5n4C4CCC4)cc3)cc2)cn1` [Example 124], in assay [1], the IC50 was over 100 µM and the “IC50PTP/IC50SHP2 Laforin” value was determined as 139.7. In assay [2], the IC50 was over 100 µM and the “IC50PTP/IC50SHP2 PRL2” value is recorded as 139.7. In assay [3], the IC50 is over 100 µM and the “IC50PTP/IC50SHP2 CD45” value worked out at 139.7.

Take `O=C(Nc1ccc(-c2cc3cc(F)c(-c4nnn[nH]4)cc3n2C2CCC2)cc1)C(=O)Nc1ccc(N2CC3COCC3C2)cc1` (centres unmarked) [Example 114]: in assay [1], half-maximal inhibition (IC50) required 2.44 µM and the “IC50PTP/IC50SHP2 Laforin” value came to 33.8. In assay [2], the IC50 was over 100 µM and the “IC50PTP/IC50SHP2 PRL2” value is 1388. Further, in assay [3], it took 1.81 µM to reach half-maximal inhibition (IC50) and the “IC50PTP/IC50SHP2 CD45” value was 25.1.

Turning to `O=C(Nc1ccc(-c2cc3cc(F)c(-c4nnn[nH]4)cc3n2C2CCC2)cc1)C(=O)Nc1ccc(N2CCC3(CCOC3)CC2)cc1` [Example 67], in assay [1], the IC50 amounted to 6.21 µM and the “IC50PTP/IC50SHP2 Laforin” value was 182. Moreover, in assay [2], the IC50 is over 100 µM and the “IC50PTP/IC50SHP2 PRL2” value turned out to be 2941. Further, in assay [3], the IC50 amounted to 2.62 µM and the “IC50PTP/IC50SHP2 CD45” value was 77.0.

`O=C(Nc1ccc(-c2ccsc2)cc1)C(=O)Nc1ccc(-c2cc3ccc(-c4nnn[nH]4)nc3n2C2CCC2)cc1` [Example 129]: in assay [1], the IC50 is over 20 µM and the “IC50PTP/IC50SHP2 Laforin” value came to 339.0. In assay [2], the IC50 was over 50 µM and the “IC50PTP/IC50SHP2 PRL2” value is given as 847.5. Also, in assay [3], the IC50 was 41.5 µM and the “IC50PTP/IC50SHP2 CD45” value is reported as 703.4.

As for `O=C(Nc1ccc(-c2ccsc2)cc1)C(=O)Nc1ccc(-c2cc3cnc(-c4nnn[nH]4)nc3n2C2CCC2)cc1` [Example 131], in assay [1], the IC50 was over 20 µM and the “IC50PTP/IC50SHP2 Laforin” value came to 769.2. Besides, in assay [2], the IC50 is over 50 µM and the “IC50PTP/IC50SHP2 PRL2” value was found to be 1923.1. Further, in assay [3], the IC50 was 25.2 µM and the “IC50PTP/IC50SHP2 CD45” value is 969.2.

For the molecule `Cn1cc(-c2ccc(NC(=O)C(=O)Nc3ccc(-c4cc5cc(F)c(-c6noc(=O)[nH]6)cc5n4C4CCC4)cc3)cc2)cn1` [Example 123], in assay [1], the IC50 was over 100 µM and the “IC50PTP/IC50SHP2 Laforin” value is listed as 709.2. Also, in assay [2], the IC50 is over 100 µM and the “IC50PTP/IC50SHP2 PRL2” value came to 709.2. In assay [3], the IC50 is 4.27 µM and the “IC50PTP/IC50SHP2 CD45” value came to 30.3.

As for `O=C(Nc1ccc(-c2ccsc2)cc1)C(=O)Nc1ccc(-c2cc3cc(F)c(-c4nnn[nH]4)cc3n2C2CCC2)cc1` [Example 4], in assay [1], the IC50 was over 20 µM and the “IC50PTP/IC50SHP2 Laforin” value was 689.7. Moreover, in assay [2], the IC50 is over 50 µM and the “IC50PTP/IC50SHP2 PRL2” value was determined as 1724.1. Besides, in assay [3], the IC50 was over 50 µM and the “IC50PTP/IC50SHP2 CD45” value is given as 1724.1.

Take `CC1(n2c(-c3ccc(NC(=O)C(=O)Nc4ccc(N5CCC6(CCOC6)CC5)cc4)cc3)cc3cc(F)c(-c4nnn[nH]4)cc32)CCC1` [Example 68]: in assay [1], the IC50 is over 25 µM and the “IC50PTP/IC50SHP2 Laforin” value was determined as 520.8. Moreover, in assay [2], the IC50 is over 25 µM and the “IC50PTP/IC50SHP2 PRL2” value was determined as 520.8. Besides, in assay [3], it took 3.48 µM to reach half-maximal inhibition (IC50) and the “IC50PTP/IC50SHP2 CD45” value is given as 72.5.

In the case of `O=C(Nc1ccc(-c2ccsc2)cc1)C(=O)Nc1ccc(-c2oc3cc(F)c(-c4nnn[nH]4)cc3c2C2CCC2)cc1` [Example 130], in assay [1], the IC50 was over 20 µM and the “IC50PTP/IC50SHP2 Laforin” value is 800. Also, in assay [2], the IC50 is over 50 µM and the “IC50PTP/IC50SHP2 PRL2” value turned out to be 2000. Also, in assay [3], the IC50 is over 50 µM and the “IC50PTP/IC50SHP2 CD45” value is given as 2000.

The values are drawn from patent EP4741383A1, “COMPOUND AND USE THEREOF AS ANTI-CANCER DRUG” (Tyligand Bioscience (Shanghai) Limited, priority 2023, dated 2025).
